The record followed here is ChEMBL document CHEMBL5120880, “Peptidomimetics: An Overview of Recent Medicinal Chemistry Efforts toward the Discovery of Novel Small Molecule Inhibitors” (J Med Chem, 2022).

Square brackets hold non-standard residues; d marks the D form. Peptide text beside a SMILES is read from it. * marks the point of attachment. Pro(cis-4-OPh) = O=C(O)[C@@H]1C[C@H](Oc2ccccc2)CN1; Bip = N[C@@H](Cc1ccc(-c2ccccc2)cc1)C(=O)O; X1 = CCCCCCCCCCCCCCCCCCS(=O)(=O)CCN*; Tle = CC(C)(C)[C@H](N)C(=O)O; X2 = CCCCCCCCCCCCCCCCCCSCCN*; NMeA = CN[C@@H](C)C(=O)O

For assay [1], the system named is Hepatitis C virus. Briefly: Antiviral activity against HCV genotype 1b/6a NS5A infected in human Huh-7 cells by phenotypic assay. The format is functional, organism-based, Hepacivirus hominis.
Assay [2] deals with Hepatitis C virus. Put plainly: Antiviral activity against HCV genotype 1b/3a NS5A infected in human Huh-7 cells by phenotypic assay. It counts as functional, organism-based, Hepacivirus hominis.
For the next assay, the system named is MDA-MB-231. Briefly: Cytotoxicity against human MDA-MB-231 cells assessed as cell growth inhibition. It counts as functional, cell-based.
Another assay concerns A549. Briefly: Cytotoxicity against human A549 cells assessed as cell growth inhibition. The format is functional, cell-based.
Another assay relates to BT-20. Briefly: Cytotoxicity against human BT-20 cells assessed as cell growth inhibition. The format is functional, cell-based.
The next assay concerns HCT-116. Put plainly: Cytotoxicity against human HCT-116 cells assessed as cell growth inhibition. The format is functional, cell-based.
A further assay relates to SW480. Briefly: Cytotoxicity against human SW480 cells assessed as cell growth inhibition. It counts as functional, cell-based.
The test system of another assay is MDA-MB-468. Briefly: Cytotoxicity against human MDA-MB-468 cells assessed as cell growth inhibition. It counts as functional, cell-based.
For assay [3], the system named is Hepatitis C virus. Briefly: Antiviral activity against HCV. The format is functional, organism-based, Hepacivirus hominis.
A further assay concerns Hep 3B2. Put plainly: Antitumor activity against human Hep3B cells assessed as cell growth inhibition. The format is functional, cell-based.
A further assay concerns NALM-6. Briefly: Antitumor activity against human NALM-6 cells assessed as cell growth inhibition. The format is functional, cell-based.
A further assay concerns FaDu. Briefly: Antitumor activity against human FaDu cells assessed as cell growth inhibition. The format is functional, cell-based.
For another assay, the system named is BT-474. Put plainly: Antitumor activity against human BT-474 cells assessed as cell growth inhibition. The format is functional, cell-based.
The subject of the next assay is HCC1954. Put plainly: Antitumor activity against human HCC1954 cells assessed as cell growth inhibition. The format is functional, cell-based.
The next assay concerns SARS-CoV. Briefly: microbe, parasite or virus in culture. Particulars: Severe acute respiratory syndrome-related coronavirus.
Assay [4] relates to SARS-CoV-2. Put plainly: microbe, parasite or virus in culture. Particulars: Severe acute respiratory syndrome coronavirus 2.
Assay [5] relates to Feline infectious peritonitis virus. Put plainly: microbe, parasite or virus in culture. The note with it: Alphacoronavirus 1.
Assay [6] concerns Middle East respiratory syndrome-related coronavirus. Put plainly: microbe, parasite or virus in culture.
The next assay relates to Murine hepatitis virus. Put plainly: microbe, parasite or virus in culture. The note with it: Murine coronavirus.
The test system of assay [7] is SARS-CoV-2. Briefly: Antiviral activity against SARS-CoV-2 by cell based assay. It counts as functional, organism-based. The note with it: Severe acute respiratory syndrome coronavirus 2.
A further assay relates to HeLa. Briefly: Antiproliferative activity against human HeLA cells by MTT assay. The format is functional, cell-based.
For the next assay, the system named is N2a. Briefly: Antiproliferative activity against mouse N2a cells by MTT assay. It counts as functional, cell-based.
Assay [8] in a line: Binding affinity to beta-catenin/APC (unknown origin) assessed as inhibition constant. Set-up: species or system Homo sapiens.
Assay [9] concerns the target Catenin beta-1/Cadherin-1 (Homo sapiens, UniProt P12830+P35222). Put plainly: Binding affinity to beta-catenin/E-cadherin (unknown origin) assessed as inhibition constant. It counts as protein assay.
In assay [10] the test system is Middle East respiratory syndrome-related coronavirus. Put plainly: Antiviral activity against MERS-CoV by cell based assay. The format is functional, organism-based.
A further assay relates to Staphylococcus aureus. Briefly: Antibacterial activity against Staphylococcus aureus ATCC 29213 assessed as minimal inhibitory concentration. It counts as functional.
A short description of assay [11]: Inhibition of Acinetobacter baumannii […] assessed as measuring NADH consumption rate.
For assay [12], the system named is Klebsiella pneumoniae subsp. ozaenae. Briefly: Antibacterial activity against Klebsiella pneumoniae A6030827 assessed as minimal inhibitory concentration. It counts as functional.
In the next assay the test system is Acinetobacter baumannii. Put plainly: Antibacterial activity against Acinetobacter baumannii ATCC BAA1605 assessed as minimal inhibitory concentration. It counts as functional.
Another assay concerns Escherichia coli. Put plainly: Antibacterial activity against Escherichia coli AG100 assessed as minimal inhibitory concentration. It counts as functional.
The target in assay [13] is T1, Enoyl-[acyl-carrier-protein] reductase [NADH] FabI (Escherichia coli K-12, UniProt P0AEK4).
T1 sequence (P0AEK4 whole entry): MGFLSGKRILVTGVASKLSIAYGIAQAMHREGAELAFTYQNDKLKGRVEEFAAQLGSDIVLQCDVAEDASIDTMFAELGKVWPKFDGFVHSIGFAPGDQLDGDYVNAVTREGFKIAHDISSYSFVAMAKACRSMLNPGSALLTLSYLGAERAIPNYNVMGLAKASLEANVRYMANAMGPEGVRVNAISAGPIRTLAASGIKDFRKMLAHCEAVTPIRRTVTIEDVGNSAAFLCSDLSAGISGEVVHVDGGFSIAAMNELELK
Briefly: Inhibition of Escherichia coli […] assessed as measuring NADH consumption rate.

Assay [14] is described as follows: Inhibition of FITC-labeled NS4A binding to HCV NS3 (4 to 182 residues) expressed in Escherichia coli […] (DE3) incubated for 60 mins by fluorescence anisotropy based competition assay. Further details: species or system Hepacivirus hominis.
Assay [15] is described as follows: Antitumor activity against human UM-SCC-5 cells assessed as cell growth inhibition. The format is functional, cell-based.
A short description of assay [16]: Antitumor activity against human UM-SCC-38 cells assessed as cell growth inhibition. It counts as functional, cell-based.

Catenin beta-1/Cadherin-1, sequence (P35222 whole entry): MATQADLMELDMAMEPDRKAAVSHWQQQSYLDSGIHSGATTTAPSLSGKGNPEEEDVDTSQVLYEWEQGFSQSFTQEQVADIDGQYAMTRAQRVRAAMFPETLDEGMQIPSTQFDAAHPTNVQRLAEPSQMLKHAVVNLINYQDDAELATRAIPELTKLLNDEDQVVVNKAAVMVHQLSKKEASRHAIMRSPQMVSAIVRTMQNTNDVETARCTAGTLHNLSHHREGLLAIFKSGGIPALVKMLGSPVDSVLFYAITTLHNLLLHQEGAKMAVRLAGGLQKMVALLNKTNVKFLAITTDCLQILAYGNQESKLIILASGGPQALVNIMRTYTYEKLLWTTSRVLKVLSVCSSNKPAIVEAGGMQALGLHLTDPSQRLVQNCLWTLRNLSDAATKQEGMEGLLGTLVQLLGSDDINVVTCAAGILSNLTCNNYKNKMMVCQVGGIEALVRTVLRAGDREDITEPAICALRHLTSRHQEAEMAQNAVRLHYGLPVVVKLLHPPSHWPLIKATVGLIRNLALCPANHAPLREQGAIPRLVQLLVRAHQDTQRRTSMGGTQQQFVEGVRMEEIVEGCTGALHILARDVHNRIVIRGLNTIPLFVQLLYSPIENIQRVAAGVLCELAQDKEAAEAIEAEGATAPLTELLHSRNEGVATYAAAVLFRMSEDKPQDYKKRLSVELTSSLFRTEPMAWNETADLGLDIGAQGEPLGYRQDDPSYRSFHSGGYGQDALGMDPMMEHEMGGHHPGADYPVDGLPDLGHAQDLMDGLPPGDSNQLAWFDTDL
Catenin beta-1/Cadherin-1, sequence (P12830 whole entry): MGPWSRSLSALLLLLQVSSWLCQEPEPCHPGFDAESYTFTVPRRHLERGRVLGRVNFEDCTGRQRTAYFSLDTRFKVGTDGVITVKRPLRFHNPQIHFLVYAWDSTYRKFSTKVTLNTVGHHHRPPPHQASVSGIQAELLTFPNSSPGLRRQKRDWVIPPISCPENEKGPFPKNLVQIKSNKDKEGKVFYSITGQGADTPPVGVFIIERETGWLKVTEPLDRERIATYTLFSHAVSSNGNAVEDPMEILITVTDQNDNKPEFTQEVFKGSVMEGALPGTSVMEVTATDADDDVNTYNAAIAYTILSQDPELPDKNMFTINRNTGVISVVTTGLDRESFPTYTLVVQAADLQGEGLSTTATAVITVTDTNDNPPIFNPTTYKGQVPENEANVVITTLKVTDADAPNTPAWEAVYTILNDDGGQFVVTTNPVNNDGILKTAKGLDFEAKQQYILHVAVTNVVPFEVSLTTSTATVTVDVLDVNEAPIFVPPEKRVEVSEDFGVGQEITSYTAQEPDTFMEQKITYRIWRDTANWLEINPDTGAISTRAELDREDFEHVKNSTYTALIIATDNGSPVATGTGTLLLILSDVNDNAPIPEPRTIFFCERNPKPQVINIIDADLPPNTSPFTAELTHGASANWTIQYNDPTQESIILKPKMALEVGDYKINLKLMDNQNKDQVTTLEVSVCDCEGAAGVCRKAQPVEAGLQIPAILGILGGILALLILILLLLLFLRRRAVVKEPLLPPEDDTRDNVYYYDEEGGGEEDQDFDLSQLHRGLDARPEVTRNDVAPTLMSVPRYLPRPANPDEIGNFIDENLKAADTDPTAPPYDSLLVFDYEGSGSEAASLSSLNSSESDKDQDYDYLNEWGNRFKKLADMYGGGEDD

Take `COC(=O)N[C@H](C(=O)N1CCC[C@H]1c1ncc(-c2ccc(-c3ccc(-c4cnc([C@@H]5CCCN5C(=O)[C@@H](NC(=O)OC)C(C)C)[nH]4)cc3)cc2)[nH]1)C(C)C`: the EC50 came out at 0.047 nM in the assay on Hepatitis C virus [1] and 0.105 nM in the assay on Hepatitis C virus [2].

Consider `CCOC(=O)CC[C@H](NC(=O)[C@H](Cc1nn[nH]n1)NC(=O)[C@H](Cc1ccc2ccccc2c1)NC(=O)c1cc2cc(Cl)ccc2[nH]1)C(=O)Nc1ccc(OC(F)(F)F)cc1`, for which the IC50 in the assay on MDA-MB-231 stood at 12300 nM; in the assay on A549, 86400 nM; in the assay with BT-20, 16500 nM; in the assay on HCT-116 it was 69400 nM; in the assay on SW480, 14100 nM; in the assay with MDA-MB-468, 7250 nM.

`CC[C@@H]1[C@@H]2CN(C(=O)[C@H](C(C)(C)C)NC(=O)O[C@@H]3C[C@H]3CCCCC(F)(F)c3nc4ccc(OC)cc4nc3O2)[C@@H]1C(=O)N[C@]1(C(=O)NS(=O)(=O)C2(C)CC2)C[C@H]1C(F)F` had an EC50 in the assay with Hepatitis C virus [3] of 70 nM.

As to `NC(=O)CC[C@H](NC(=O)[C@H](Cc1nn[nH]n1)NC(=O)[C@H](Cc1ccc2ccccc2c1)NC(=O)c1cc2cc(Cl)ccc2[nH]1)C(=O)Nc1ccc(OC(F)(F)F)cc1`, the IC50 was 34300 nM with MDA-MB-231; 60300 nM with A549; 38400 nM in the assay on BT-20; 63900 nM with HCT-116; 28200 nM with SW480; 29200 nM in the assay with MDA-MB-468.

In the case of `CCCCCCCCCCCCCCc1cccc(O[C@H]2C[C@@H](C(=O)NCC(c3ccccc3)c3ccccc3)N(C(=O)[C@@H](NC(=O)[C@H](C)NC)C(C)(C)C)C2)c1`, the 50% effective concentration (EC50) amounted to 2200 nM in the assay on Hep 3B2; 11100 nM in the assay on NALM-6; 1500 nM with FaDu; 7000 nM in the assay with BT-474; 19800 nM in the assay with HCC1954.

For `CC(C)C[C@H](NC(=O)OC1CCC(F)(F)CC1)C(=O)N[C@H](C=O)C[C@H]1CCNC1=O`, the results for the IC50 (in the assay on SARS-CoV; in the assay with SARS-CoV-2 [4]; in assay [6]) were 2300 nM, 1500 nM and 70 nM, respectively. The EC50 in assay [5] came out at 120 nM; in the assay on Murine hepatitis virus, 80 nM; with SARS-CoV-2 [7], 110 nM.

On to `CCCCC1CCC(OC(=O)N[C@@H](CC(C)C)C(=O)N[C@H](C=O)C[C@H]2CCNC2=O)CC1` (stereo partly specified), for which the IC50 in the assay with SARS-CoV worked out at 900 nM; with SARS-CoV-2 [4], 800 nM; in assay [6], 150 nM. For the same compound, the EC50 in [5] was determined as 220 nM; with Murine hepatitis virus, 120 nM; in the assay on SARS-CoV-2 [7] it was 100 nM.

Turning to `COC(=O)N[C@H](C(=O)N1CCC[C@H]1C(=O)Nc1cccc(-c2ccc3c(c2)C(F)(F)c2cc(-c4cnc([C@@H]5CCCN5C(=O)[C@@H](NC(=O)OC)C(C)C)[nH]4)ccc2-3)c1)C(C)C`, the EC50 in the assay with Hepatitis C virus [1] was 0.275 nM; with Hepatitis C virus [2], more than 0.5 nM; with Hepatitis C virus [3] it was less than 0.05 nM.

In the case of `COC(=O)N[C@H](C(=O)N1CCC[C@H]1C(=O)Nc1cc2ccc1CCc1ccc(cc1NC(=O)[C@@H]1CCCN1C(=O)[C@@H](NC(=O)OC)C(C)C)CC2)C(C)C`, the EC50 in the assay on Hepatitis C virus [1] was more than 0.5 nM; in the assay on Hepatitis C virus [2] it was more than 0.5 nM; in the assay on Hepatitis C virus [3], 0.08 nM.

On to `O=C(Cc1ccccc1)NC1CC2CN(Cc3ccccc3)CC3C2CC=C(COC(=O)Cc2ccccc2)C13` (stereo unspecified), for which the EC50 is 10300 nM with HeLa and 2100 nM with N2a.

For `CCCCCCCCCCCCCCCCCCS[C@H]1C[C@@H](C(=O)NCC(c2ccccc2)c2ccccc2)N(C(=O)[C@@H](NC(=O)[C@H](C)NC)C(C)(C)C)C1`, the 50% effective concentration (EC50) with Hep 3B2 is 12400 nM; with NALM-6, 26900 nM; with FaDu, 5400 nM; in the assay with BT-474 it was 10800 nM; in the assay on HCC1954, 17500 nM.

On to `O=C(O)CC[C@H](NC(=O)[C@H](Cc1nnn[nH]1)NC(=O)[C@H](Cc1ccc2ccccc2c1)NC(=O)c1cc2c(Cl)cccc2[nH]1)C(=O)Nc1ccc(OC(F)(F)F)cc1`, for which the Ki was 173000 nM in [8] and 13000 nM in [9].

Compound `CCCC1CCC(OC(=O)N[C@@H](CC(C)C)C(=O)N[C@H](C=O)C[C@H]2CCNC2=O)CC1` (stereo partly specified) showed an IC50 with SARS-CoV-2 [4] of 1600 nM. The concentration giving a half-maximal response (EC50) in assay [5] stood at 120 nM; in the assay with Murine hepatitis virus, 130 nM; with SARS-CoV-2 [7], 100 nM; in assay [10], 50 nM.

With `Cc1c(CN(C)C(=O)/C=C/c2cnc3c(c2)CC[C@@H](N2CCCC2)C(=O)N3)oc2ccccc12`, the MIC (in the assay with Staphylococcus aureus; in assay [12]; with Acinetobacter baumannii; with Escherichia coli) was not above 4 µg/mL each time. Further, the IC50 in [11] and in assay [13] was less than 10 nM throughout.

On to `COC(=O)N[C@@H](C(=O)N1CCC[C@H]1C(=O)Nc1cncc(-c2c3c(c(-c4cncc(NC(=O)[C@@H]5CCCN5C(=O)[C@H](NC(=O)OC)c5ccccc5)c4)c4c2C(C)(C)CC4)C(C)(C)CC3)c1)c1ccccc1`, for which, in the assay on Hepatitis C virus [1], the concentration for a half-maximal effect (EC50) was more than 0.5 nM.

With `CCCCCCNC(=O)c1ncc(C(=O)NCCCCNC(=N)N)[nH]1`, in [14], the IC50 was 4700 nM.

In turn, `CCCCCNC(=O)c1ncc(C(=O)NCCCCNC(=N)N)[nH]1` gave an IC50 in [14] of 1910 nM.

`CNC(=O)CNC(=O)c1ncc(C(=O)NCCCCNC(=N)N)[nH]1` displayed an IC50 in assay [14] of 1910 nM.

In the case of `CCCCCCCCCCCCCCCCCCS(=O)(=O)CCNC(=O)[C@H](Cc1ccc(-c2ccccc2)cc1)NC(=O)[C@@H]1C[C@H](Oc2ccccc2)CN1C(=O)[C@@H](NC(=O)[C@H](C)NC)C(C)(C)C` (H-[NMeA][Tle][Pro(cis-4-OPh)][Bip]-X1), the results for the EC50 in assay [15] and in [16] were 730 nM and 140 nM, respectively.

`CCCCCCCCCCCCCCCCCCSCCNC(=O)[C@H](Cc1ccc(-c2ccccc2)cc1)NC(=O)[C@@H]1C[C@H](Oc2ccccc2)CN1C(=O)[C@@H](NC(=O)[C@H](C)NC)C(C)(C)C` (H-[NMeA][Tle][Pro(cis-4-OPh)][Bip]-X2): the EC50 in assay [15] amounted to 960 nM; in assay [16], 330 nM.
